Measured values: the NIST ThermoML archive (doi:10.1021/je9003178)
± gives the expanded uncertainty stated by the source.

Test: activity coefficient (dimensionless); of the first substance listed, at infinite dilution; xn = mol fraction of the nth substance listed
Details: Liquid, Chromatography, x1 = 0

SMILES | activity coefficient (322.65 K) | activity coefficient (332.85 K) | activity coefficient (343.15 K) | activity coefficient (343.85 K) | activity coefficient (352.65 K)
CCCCCCCCCC [decane] + CCn1cc[n+](C)c1.N#CN=C=[N-] | 699 ± 33 | 627 ± 30 | 565 ± 27 |  | 
CCCC=O [butanal] + CCCCCC[N+](C)(C)C.O=S(=O)([N-]S(=O)(=O)C(F)(F)F)C(F)(F)F | 0.657 ± 0.03 |  |  | 0.661 ± 0.03 | 0.677 ± 0.03
Cc1ccccc1C [1,2-dimethylbenzene] + CCn1cc[n+](C)c1.N#CN=C=[N-] | 5.86 ± 0.27 | 5.8 ± 0.27 | 5.75 ± 0.26 |  | 
OCC(F)(F)F [2,2,2-trifluoroethanol] + CCCCCC[N+](C)(C)C.O=S(=O)([N-]S(=O)(=O)C(F)(F)F)C(F)(F)F | 0.157 ± 0.038 |  |  | 0.402 ± 0.034 | 0.393 ± 0.034
CC(C)OC(C)C [diisopropyl ether] + CCn1cc[n+](C)c1.N#CN=C=[N-] | 32.1 ± 1.5 | 32.3 ± 1.5 | 32.4 ± 1.5 |  | 
CCN(CC)CC [triethylamine] + CCn1cc[n+](C)c1.N#CN=C=[N-] | 9.09 ± 0.42 | 35.8 ± 1.7 | 131 ± 6.2 |  | 
CCCO [propan-1-ol] + CCn1cc[n+](C)c1.N#CN=C=[N-] | 1.07 ± 0.03 | 1.01 ± 0.03 | 0.97 ± 0.03 |  | 
Cc1ccc(C)cc1 [1,4-dimethylbenzene] + CCn1cc[n+](C)c1.N#CN=C=[N-] | 6.93 ± 0.32 | 7.05 ± 0.32 | 6.79 ± 0.31 |  | 
CCCCCCCCCCC [undecane] + CCCCCC[N+](C)(C)C.O=S(=O)([N-]S(=O)(=O)C(F)(F)F)C(F)(F)F | 51.2 ± 2.4 |  |  | 42 ± 2 | 39.7 ± 1.8
c1ccsc1 [thiophene] + CCCCCC[N+](C)(C)C.O=S(=O)([N-]S(=O)(=O)C(F)(F)F)C(F)(F)F | 0.921 ± 0.026 |  |  | 0.92 ± 0.026 | 0.941 ± 0.026
CC(C)O [propan-2-ol] + CCCCCC[N+](C)(C)C.O=S(=O)([N-]S(=O)(=O)C(F)(F)F)C(F)(F)F | 1.69 ± 0.07 |  |  | 1.39 ± 0.051 | 1.33 ± 0.046
CC1CCCC1 [methylcyclopentane] + CCn1cc[n+](C)c1.N#CN=C=[N-] | 50.3 ± 2.4 | 46.5 ± 2.2 | 43.2 ± 2 |  | 
CCCCCCCCC [nonane] + CCCCCC[N+](C)(C)C.O=S(=O)([N-]S(=O)(=O)C(F)(F)F)C(F)(F)F | 28.9 ± 1.3 |  |  | 24.6 ± 1.1 | 23.4 ± 1.1
C1COCCO1 [1,4-dioxane] + CCn1cc[n+](C)c1.N#CN=C=[N-] | 0.89 ± 0.03 | 1.24 ± 0.04 | 1.25 ± 0.04 |  | 
C1COCCO1 [1,4-dioxane] + CCCCCC[N+](C)(C)C.O=S(=O)([N-]S(=O)(=O)C(F)(F)F)C(F)(F)F | 0.655 ± 0.03 |  |  | 0.661 ± 0.03 | 0.68 ± 0.03
CCCC(C)=O [pentan-2-one] + CCn1cc[n+](C)c1.N#CN=C=[N-] | 2.92 ± 0.13 | 2.93 ± 0.13 | 2.9 ± 0.13 |  | 
CCCO [propan-1-ol] + CCCCCC[N+](C)(C)C.O=S(=O)([N-]S(=O)(=O)C(F)(F)F)C(F)(F)F | 1.83 ± 0.079 |  |  | 1.51 ± 0.058 | 1.41 ± 0.052
CCC=O [propanal] + CCCCCC[N+](C)(C)C.O=S(=O)([N-]S(=O)(=O)C(F)(F)F)C(F)(F)F | 0.508 ± 0.032 |  |  | 0.502 ± 0.032 | 0.505 ± 0.032
CCCCCCCCCCCCCC [tetradecane] + CCCCCC[N+](C)(C)C.O=S(=O)([N-]S(=O)(=O)C(F)(F)F)C(F)(F)F | 159 ± 7.5 |  |  | 101 ± 4.7 | 84.7 ± 4
CCc1ccccc1 [ethylbenzene] + CCn1cc[n+](C)c1.N#CN=C=[N-] | 7.43 ± 0.34 | 7.38 ± 0.34 | 7.29 ± 0.33 |  | 
CCCCCCC [heptane] + CCCCCC[N+](C)(C)C.O=S(=O)([N-]S(=O)(=O)C(F)(F)F)C(F)(F)F | 13.5 ± 0.62 |  |  | 12.3 ± 0.57 | 11.9 ± 0.55
Cc1ccccc1C [1,2-dimethylbenzene] + CCCCCC[N+](C)(C)C.O=S(=O)([N-]S(=O)(=O)C(F)(F)F)C(F)(F)F | 1.66 ± 0.068 |  |  | 1.69 ± 0.07 | 1.76 ± 0.075
CCCCCCCCCCCCC [tridecane] + CCCCCC[N+](C)(C)C.O=S(=O)([N-]S(=O)(=O)C(F)(F)F)C(F)(F)F | 100 ± 4.7 |  |  | 76.2 ± 3.6 | 71.5 ± 3.3
CCCCO [butan-1-ol] + CCn1cc[n+](C)c1.N#CN=C=[N-] | 1.59 ± 0.06 | 1.47 ± 0.06 | 1.4 ± 0.05 |  | 
Cc1cccc(C)c1 [1,3-dimethylbenzene] + CCn1cc[n+](C)c1.N#CN=C=[N-] | 7.4 ± 0.34 | 8.39 ± 0.38 | 7.27 ± 0.33 |  | 
